The results in this text go back to patent US9982021B2, “Composition for dissolving thrombi, and a pharmaceutical composition for treating stenotic or occlusive vascular diseases which comprises the same” (INDUSTRY-ACADEMIC COOPERATION FOUNDATION, YONSEI UNIVERSITY, priority 2010, dated 2018).

Data set [1] deals with mouse PRP (platelet rich plasma). Briefly: In vitro platelet aggregation assay (ADP, Aggregometer). The note with it: for IC50: ADP, mouse PRP, read-out: IC50 platelet aggregation inhibition. The class given is cell-based. An excerpt:
Saxatilin derivatives and ADP were administrated to mouse PRP (platelet rich plasma) and measured aggregation level using Aggregometer (CHRONO-LOG, USA) to evaluate activity of the present saxatilin derivatives (Table 1).

A short description of data set [2]: Mortality and bleeding after the r-saxatilin treatment. The note with it: 5 mg/kg bolus injection group. The class given is in vivo, ICR mice. An excerpt:
Total 51 animals were used for evaluation of thrombolytic effects of r-saxatilin.

Data set [3] relates to FeCl3-induced carotid thrombus. The data set is described as follows: Intravenous thrombolysis in FeCl3-induced carotid artery thrombosis model (carotid blood flow). In kind it is in vivo, ICR mice.
For data set [4], the system named is FeCl3-induced carotid thrombus. Described as above. The class given is in vivo, ICR mice. On the procedure:
8-week-old male ICR (Institute of Cancer Research) mice (OrientBio) were used. The care and use of laboratory animals were performed according to institutionally approved protocol in accordance with the National Institutes of Health's Guide for the care and use of laboratory animals. For operative procedures, the animals were anesthetized with an inhalation of 5% isoflurane in a mixture of 70% N2O and 30% O2. Anesthesia was maintained with 2% isoflurane. During the operative procedures, body temperature was monitored continuously with a rectal probe and was maintained at 37.0±0.2° C. by means of a homeothermic blanket control unit and heating pad (Harvard Apparatus, Holliston, Mass.). To test the thrombolytic activity of r-saxatilin in vivo, FeCl3 (Sigma Aldrich, USA)-induced carotid thrombus model was utilized. A midline cervical incision was made, and the left common carotid artery was carefully dissected under a surgical microscope. An ultrasonic Doppler flow probe (Transonic MA0.7PSB) was placed around midportion of the common carotid artery (CCA). Carotid blood flow was obtained with a Transonic TS420 Blood Flow Meter (Transonic Instruments, Ithaca, N.Y.) and iWorx IX-304T data acquisition system (iWorx Systems, Inc., Dover, N.H.). The control baseline flow of the CCA was measured for 5 minutes. After the determination of the control baseline flow, the probe was removed. Oxidative vascular injury with chemical stress was induced by placing a filter paper (700×500 μm) saturated with 50% FeCl3 on the adventitial surface of the midpoint of the exposed CCA for 5 min. After removing the filter paper, the CCA was washed with normal saline and its blood flow was recorded. Thrombus formation and arterial occlusion were determined by decrease of blood flow and the complete occlusion was defined as absence of blood flow maintained for 10 minutes.
Ten minutes after occlusion of the CCA, r-saxatilin was administered intravenously via the left femoral vein by using an infusion pump (KD Scientific Inc., USA) connected to PE-10 tubing. The carotid blood flow was continuously monitored for 2 hours from the initial time of injection.
To evaluate dose response of r-saxatilin, the animals were randomly divided into seven groups (five mice in each group): normal saline (control group), 1, 1.75, 2.5, 3.75, 5.0, and 10.0 mg/kg of r-saxatilin administration groups. 10% of the dose was administered in bolus intravenously and the rest was infused continuously for 60 min.
Effects of r-saxatilin for thrombolysis were assessed according to administration method. For this experiment, a total dose of 5 mg/kg of r-saxatilin was used in each animal, and the animals were divided into four groups (five mice in each group): (a) bolus injection of total dose (5 mg/kg); (b) double bolus injection of r-saxatilin with a half dose (2.5 mg/kg) of r-saxatilin at 10 min after occlusion and 60 min after the first bolus injection; (c) a half dose bolus injection (2.5 mg/kg) at 10 min after occlusion, and then continuous infusion for 60 min of the remaining dose; and (d) bolus injection of 10% of the total dose (0.5 mg/kg) at 10 min after occlusion, and then continuous infusion of the remaining dose (4.5 mg/kg) for 60 min.
The presence and degree of recanalization were assessed by measuring blood flow. Data of blood flow at baseline and those monitored continuously for 2 hours after CCA occlusion were acquired by using iWorx Labscribe2 data acquisition software (version 2.045000). Immediately after 2 hours of blood flow monitoring, the CCA was obtained in all mice, fixed with 4% paraformaldehyde solution, and embedded in paraffin for histological examination. The paraffin blocks were consecutively sectioned in a transverse direction with 3 μm-thickness, mounted on a glass slide, and stained with hematoxylin and eosin.
The carotid blood flow was analyzed by the area under the flow-time curves. […]
This is another data set of the same source.

[5] abbreviates: total 5 mg/kg, bolus injection of total dose.

Entries after “also recorded” stand apart in the source; their conditions may differ.

Consider “XL2: saxatilin derivative (deletion mutant), SEQ ID NO:7, expressed in Pichia (CKLRPGAQCAEGLCCDQCRFMKEGTICRMARGDDMDDYCNGISAGC; aritificially made peptide comprising Arg-Gly-Asp motif having thrombolytic activity)”, for which the IC50 in data set [1] is 0.986 µM.

Take saxatilin: the “bleeding in the cervical incision” value in data set [2] is recorded as “one animal suffered bleeding”. Also, the mortality result in data set [2] (about 90 min after bolus, total 51 animals) is given as “one animal was died from bleeding”. The “restored blood flow (area under flow-time curve)” value in data set [3] (20 mg/kg) is given as 60.92±39.52%. In data set [3] (40 mg/kg), the “restoration of blood flow and reocclusion” value was “restored to normal blood flow and maintained without reocclusion”. Besides, the IC50 in data set [1] is 0.176 µM. The “treatment concentration giving similar level of aggregation inhibition” value in data set [1] (FIG. 6) was “approximately 0.7 μM”. In data set [4] (1 mg/kg), the “effective recanalization (blood flow >=50% of baseline maintained >30 min), mice” value is reported as “No effective recanalization”. Besides, the “blood flow, area under flow-time curve, percent of mean control baseline blood flow” value in data set [4] (1 mg/kg i.v., 10% bolus + 60 min infusion, 2 h monitoring) turned out to be 2.36±0.78%; in data set [4] (1.75 mg/kg i.v., 10% bolus + 60 min infusion), 4.97±3.94%; in data set [4] (2.5 mg/kg i.v., 10% bolus + 60 min infusion) it was 32.50±33.70%. For the same substance, the “effective recanalization, mice” value in data set [4] (1.75 mg/kg) is “No effective recanalization”; in data set [4] (2.5 mg/kg), “two of five”; in data set [4] (3.75 mg/kg), “three of five”; in data set [4] (5 mg/kg, 10% bolus + infusion), “all mice”; in data set [4] (10 mg/kg) it was “all mice”. In addition, the “time to effective recanalization” value was 32.92 ± 23.52 min in data set [4] (2.5 mg/kg); 21.75 ± 21.62 min in data set [4] (3.75 mg/kg); 13.92 ± 6.02 min in data set [4] (5 mg/kg, bolus 10% of total dose + continuous infusion); 2.86 ± 0.22 min in data set [4] (5 mg/kg, bolus injection of total dose); 13.44 ± 26.31 min in data set [4] (5 mg/kg, double bolus injection); 19.48 ± 25.94 min in data set [4] (5 mg/kg, half dose bolus and continuous infusion of other half). In addition, in data set [4] (10 mg/kg), the “time to effective recanalization” value stood at 19.46 ± 19.75 min. Further, the “blood flow, area under flow-time curve, versus baseline and 5 mg/kg” value in data set [4] (10 mg/kg i.v., 10% bolus + 60 min infusion, listed as r-saxatilin) is “no significant difference; also recorded: restored nearly to the baseline level”. The reocclusion entry in data set [4] (total 5 mg/kg, bolus 10% of total dose + continuous infusion of remaining dose) was “no reocclusion”. For the same substance, the “mean percentage of blood flow compared to baseline blood flow” value in data set [4] (setting [5]) is given as 77.01±46.11%; in data set [4] (total 5 mg/kg, double bolus injection with a half dose (2.5 mg/kg each)) it was 85.23±29.95%; in data set [4] (total 5 mg/kg, half dose bolus then continuous infusion of remaining dose for 60 min), 80.72±30.13%. The “time point of abrupt reocclusion” value in data set [4] (setting [5]) was “about 100 min”; in data set [4] (total 5 mg/kg, double bolus injection, after the first injection) it was “about 50 min”; in data set [4] (total 5 mg/kg, half dose bolus and continuous infusion of other half), “about 110 min”.
